The source of these data is ChEMBL document CHEMBL1287689, “Sulfonamide derivatives of styrylheterocycles as a potent inhibitor of COX-2-mediated prostaglandin E2 production” (Bioorg Med Chem Lett, 2010).

Structures are written as SMILES. The source made the active and inactive calls. The rule behind the calls is not given here.

The target in assay [1] is T1, Prostaglandin G/H synthase 2 (Mus musculus, UniProt Q05769).
T1 sequence (Q05769 whole entry): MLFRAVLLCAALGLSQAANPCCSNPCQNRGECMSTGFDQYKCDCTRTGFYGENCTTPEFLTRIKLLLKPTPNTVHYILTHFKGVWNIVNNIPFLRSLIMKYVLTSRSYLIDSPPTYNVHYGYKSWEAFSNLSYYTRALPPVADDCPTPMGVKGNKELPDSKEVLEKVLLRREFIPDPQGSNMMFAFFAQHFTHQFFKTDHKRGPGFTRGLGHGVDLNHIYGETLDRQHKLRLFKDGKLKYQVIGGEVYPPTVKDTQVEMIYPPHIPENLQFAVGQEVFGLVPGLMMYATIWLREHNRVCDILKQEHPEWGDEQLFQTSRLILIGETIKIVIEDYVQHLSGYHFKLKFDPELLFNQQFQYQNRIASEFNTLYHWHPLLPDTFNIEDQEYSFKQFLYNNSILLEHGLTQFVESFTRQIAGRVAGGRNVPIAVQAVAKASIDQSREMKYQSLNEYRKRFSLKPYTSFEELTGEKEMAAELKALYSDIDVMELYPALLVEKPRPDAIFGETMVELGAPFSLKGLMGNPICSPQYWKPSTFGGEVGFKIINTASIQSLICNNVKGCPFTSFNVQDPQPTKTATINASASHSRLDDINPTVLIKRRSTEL
Briefly: Inhibition of COX-2 mediated PGE2 production in LPS-induced mouse RAW264.7 cells. Format: cell-based.

For assay [2], the system named is RAW264.7. In words: Inhibition of COX-2 gene expression in LPS-stimulated mouse RAW264.7 cells after 24 hrs by RT-PCR analysis. Format: functional, cell-based.

Usually IC50 stands for the concentration needed to halve the response being measured. Read a high IC50 as lower potency. `NS(=O)(=O)c1ccc(/C=C/c2ccco2)cc1` registered an IC50 in assay [1] of 18300 nM.
`NS(=O)(=O)c1ccc(/C=C/c2cccs2)cc1` registered an IC50 in assay [1] of 13 nM. For the same compound, the inhibition result in assay [2] is “Active”.
In turn, `CS(=O)(=O)c1ccc(/C=C/c2ccco2)cc1` displayed an IC50 in assay [1] of 1180 nM.
Same read-out and setting: in the case of `CS(=O)(=O)c1ccc(/C=C/c2ccoc2)cc1` it was more than 50000 nM; in that of `NS(=O)(=O)c1ccc(/C=C/c2ccoc2)cc1`, more than 50000 nM.
On the same count and under the same terms, in the case of `CS(=O)(=O)c1ccc(/C=C/c2ccsc2)cc1` it was 520 nM; in that of `CS(=O)(=O)c1ccc(/C=C/c2cccs2)cc1`, 380 nM.
As to `NS(=O)(=O)c1ccc(/C=C/c2ccsc2)cc1`, the IC50 in assay [1] is 440 nM.
